# Experimental data: patent US8008260B2, “Methods of protecting against apoptosis using lipopeptides” (Cleveland Clinic Foundation, priority 2005, dated 2011)
# Several values for one entry are separate records, joined by “and”; a condition that tells them apart may be missing. Equal values may be shown once. Peptide text beside a SMILES is read from it. * marks the point of attachment. Propyl(2R-PamO,3-PamO) = CCCCCCCCCCCCCCCC(=O)OC[C@H](C*)OC(=O)CCCCCCCCCCCCCCC
# System: ICR mice
# Test: Radioprotection against total body gamma irradiation (TBI), 30-day survival
# Assay type: in vivo
# Conditions: for mice rescued (30-day survival): one experiment
# Excerpt: CBLB601, a R-Pam2-lipopeptide with the peptide moiety consisting of C-SKKKK (SEQ ID NO: 8), was selected for more detailed characterization as a radioprotector based upon its ability to activate NF-κB and preliminary in vivo data on radioprotection in NIH-SWISS mice (see Example 2). The objectives of this study were to determine the optimal dose, route of administration, and time of administration of CBLB601 to serve as a protector. ICR female mice of 10-15 weeks of age were used, with 10-15 animals per group or condition.
# The optimal intraperitoneal administration schedule of CBLB601 was determined by injecting the compound at different times prior to irradiation. […] Therefore, all of the optimization experiments were performed with 10 Gy of total body irradiation (TBI). A dose of 3 μg of BCLB601/mouse (1/10 NOAEL) was chosen as the starting dose. Thus, 3 μg of CBLB601 was injected i.p. into ICR mice at 0.5 h, 1 h, 6 h, and 24 h or 1 h, 24 h, 48 h, 72 h, 96 h prior to 10 Gy of TBI (as described in Example 1). […] Injection of CBLB601 24 hrs before irradiation clearly yielded the best radioprotection (90-100% 30-day survival). When the compound was administered 48 hrs before irradiation, the radioprotection was ˜30%. Administration of CBLB601 at 1 hr prior to irradiation produced inconsistent results ranging from 80% protection in one experiment (FIG. 5B) to almost no protection (20%) in another experiment (FIG. 5A).
# To determine the optimal radioprotective dose of CBLB601, the timing of injection and level of irradiation were kept constant, while the dose of CBLB601 was varied. ICR mice were injected i.p. with 1, 3, 10, 20, or 30 μg of CBLB601/mouse or 0.1, 0.3, 1, 3, 10, or […] 24 hrs prior to irradiation (10 Gy of TBI), and their survival was monitored for 30 days. The best protective dose was 3 μg/mouse, which supported a survival of 100% (FIGS. 6 A and B). […] Thus, the optimal protective dose of CBLB601 was determined to be 3 μg/mouse.
# To determine the level of radiation that was protected by CBLB601, radioprotectant-treated and control mice were exposed to increasing levels of TBI. Groups of ICR mice were injected i.p. with either 3 μg CBLB601/mouse or PBS, and then 24 h later they received 10, 11, 12, 13, 14, and 15 Gy doses of TBI. Survival was recorded over 30 days. […] All of the mice irradiated with 10-11 Gy of TBI died between days 12-14 post irradiation, which was typical for death due to hematopoietic failure. All of the mice that received 14-15 Gy of TBI died between days 7-9 post irradiation, which was typical for mortality due to radiation-induced intestinal damage. Mice that were irradiated with 12-13 Gy of TBI died at intermediate times, which was typical for a mixed etiology of radiation-induced mortality. […] To reach a statistically significant 10% difference between control and CBLB601-treated mice, experimental groups of at least 50 mice must be used. Although CBLB601 rescued 100% of mice from 10 Gy of TBI, its protection at 11 Gy of TBI was only 20%. […] This may be indicative of a combined toxicity of the drug and the irradiation.
# CBLB601 was administered intramuscularly to determine the optimal route of administration of this compound (especially since this would be the preferred route of administration for humans). […] In another experiment, increasing doses of CBLB601 administered i.m. were tested against 10, 11, and 12 Gy doses of […] (FIG. 9). […] A summary of the dose-dependency of the radioprotection of […] administered i.p. or i.m. 24 h prior to 10 Gy of TBI is shown in FIG. 10.
# The optimal schedule of intramuscular administration of CBLB601 was determined by varying the time between drug delivery and irradiation. ICR mice were injected i.m. with 3 μg of CBLB601/mouse 24 h, 6 h, 3 h, and 1 h prior to TBI and +1 h, +3 h after TBI (FIG. 12A), as well as 48 h, 36 h, 24 h, 12 h, and 6 h prior to TBI (FIG. 12B). […]
# [1] = 10 μg/mouse i.p. 24 hrs before 10 Gy TBI
structure (smiles),measurement,setting,value
"CCCCCCCCCCCCCCCC(=O)OC[C@H](CSC[C@H](N)C(=O)N[C@@H](CO)C(=O)N[C@@H](CCCCN)C(=O)N[C@@H](CCCCN)C(=O)N[C@@H](CCCCN)C(=O)N[C@@H](CCCCN)C(=O)O)OC(=O)CCCCCCCCCCCCCCC [CBLB601, R-PAM2C-SKKKK] (H-C(Propyl(2R-PamO,3-PamO))SKKKK-OH)",mice rescued (30-day survival),1 μg/mouse i.p. 24 hrs before 10 Gy TBI,90%
same,protective effect,3 μg/mouse i.m. after (1 h and 3 h) 10 Gy TBI,no protective effect
same,optimal time for intramuscular delivery prior to TBI,"3 μg/mouse i.m., 10 Gy TBI",24 h
same,radioprotection (30-day survival),3 μg/mouse i.p. 0.5 h before 10 Gy TBI,10%
same,radioprotection (30-day survival),3 μg/mouse i.p. 6 h before 10 Gy TBI,20%
same,kinetics of death versus PBS controls,"3 μg/mouse i.p. 24 h before 11, 12 and 13 Gy",died with an accelerated kinetics
same,protection (30-day survival),3 μg/mouse i.p. 24 h before 11 Gy TBI,20%
same,protection from irradiation,3 μg/mouse i.p. 24 h before TBI higher than 11 Gy (12-15 Gy),no protection
same,30-day survival,3 μg/mouse i.p. 24 hrs before 10 Gy TBI,90-100% and 100%
same,radioprotection (30-day survival),3 μg/mouse i.p. 48 hrs before 10 Gy TBI,~30%
same,radioprotection,3 μg/mouse i.p. 72 h before 10 Gy TBI,No radioprotection
same,radioprotection,3 μg/mouse i.p. 96 h before 10 Gy TBI,No radioprotection
same,combined toxicity with irradiation,10 μg/mouse i.m. 24 hr before 10 Gy TBI,no sign of combined toxicity
same,combined toxicity with irradiation,[1],Some signs of this combined toxicity were detectable
same,mice rescued (30-day survival),[1],90%
same,mortality in combination with irradiation versus PBS,20 μg/mouse i.p. 24 hrs before 10 Gy TBI,accelerated mortality
same,mortality in combination with irradiation versus PBS,30 μg/mouse i.p. 24 hrs before 10 Gy TBI,accelerated mortality
same,radioprotection,"1, 3 or 10 μg/mouse i.m. 24 hr before 10 Gy TBI",imparted radioprotection
same,mortality shift at higher doses,"10, 30 μg i.m. prior to 10 Gy TBI",non-statistically significant shift to increased mortality
same,combined toxicity with irradiation,10 and 30 μg/mouse i.m. 1 h after 10 Gy TBI,increased levels of combined toxicity
same,therapeutic index (toxic dose/effective dose),i.m. administration,10-30
same,optimal dose,"i.m. and i.p., 24 h prior to 10 Gy TBI",3 μg/mouse
same,effective dose per body weight,"i.m. delivery, 24 h prior to 10 Gy TBI",0.06 to 0.115 mg/kg
same,radioprotective dose relative to NOAEL (fold lower),i.p.,10-30 fold
same,optimal protective dose,i.p. 24 hrs before 10 Gy TBI,3 μg/mouse
same,therapeutic index (toxic dose/effective dose),i.p. administration,3-10
same,effective dose per body weight,"i.p. delivery, 24 h prior to 10 Gy TBI",0.09 to 0.11 mg/kg
same,therapeutic index,summary of Example 5,3
